Data on 40 compounds can be found in patent publication US20090311217A1, “3-SUBSTITUTED-1H-INDOLE COMPOUNDS, THEIR USE AS MTOR KINASE AND PI3 KINASE INHIBITORS, AND THEIR SYNTHESES” (priority 2008, published 2009).

This experiment addresses PI3K-alpha (Homo sapiens, UniProt P42336). Put plainly: PI3K-alpha fluorescence polarization assay. Type of experiment: biochemical.

Like-named read-outs stand apart in the source and are kept apart here. Bounds are passed on as bounds.

Sequence of PI3K-alpha (P42336 whole entry, species assumed): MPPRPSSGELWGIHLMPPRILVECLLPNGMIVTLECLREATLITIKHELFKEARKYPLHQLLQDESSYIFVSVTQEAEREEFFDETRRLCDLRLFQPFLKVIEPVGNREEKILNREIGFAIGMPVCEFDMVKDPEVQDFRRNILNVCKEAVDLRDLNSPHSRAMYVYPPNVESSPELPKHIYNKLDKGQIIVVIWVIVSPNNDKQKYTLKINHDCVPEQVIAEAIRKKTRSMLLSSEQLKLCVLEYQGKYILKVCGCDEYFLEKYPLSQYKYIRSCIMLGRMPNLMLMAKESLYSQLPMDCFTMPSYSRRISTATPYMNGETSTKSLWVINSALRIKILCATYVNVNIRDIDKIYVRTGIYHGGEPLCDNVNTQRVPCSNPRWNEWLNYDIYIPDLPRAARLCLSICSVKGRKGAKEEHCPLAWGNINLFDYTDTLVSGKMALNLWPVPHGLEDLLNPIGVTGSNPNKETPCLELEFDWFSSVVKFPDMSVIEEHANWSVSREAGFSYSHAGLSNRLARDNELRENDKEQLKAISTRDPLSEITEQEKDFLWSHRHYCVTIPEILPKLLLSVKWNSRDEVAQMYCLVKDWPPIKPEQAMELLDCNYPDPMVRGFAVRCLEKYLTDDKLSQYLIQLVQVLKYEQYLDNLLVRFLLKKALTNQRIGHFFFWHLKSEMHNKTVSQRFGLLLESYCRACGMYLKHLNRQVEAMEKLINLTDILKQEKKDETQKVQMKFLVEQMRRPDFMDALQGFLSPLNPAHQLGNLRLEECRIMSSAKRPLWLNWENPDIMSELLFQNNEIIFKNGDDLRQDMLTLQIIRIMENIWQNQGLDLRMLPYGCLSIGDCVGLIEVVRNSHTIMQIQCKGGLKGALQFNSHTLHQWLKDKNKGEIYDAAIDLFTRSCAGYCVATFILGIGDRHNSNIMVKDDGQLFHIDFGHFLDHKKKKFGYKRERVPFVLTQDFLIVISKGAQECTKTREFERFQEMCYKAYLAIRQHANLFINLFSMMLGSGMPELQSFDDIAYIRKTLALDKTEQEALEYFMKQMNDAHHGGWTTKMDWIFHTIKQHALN
Sequence of PI3K-alpha (P27986 whole entry partner, species assumed): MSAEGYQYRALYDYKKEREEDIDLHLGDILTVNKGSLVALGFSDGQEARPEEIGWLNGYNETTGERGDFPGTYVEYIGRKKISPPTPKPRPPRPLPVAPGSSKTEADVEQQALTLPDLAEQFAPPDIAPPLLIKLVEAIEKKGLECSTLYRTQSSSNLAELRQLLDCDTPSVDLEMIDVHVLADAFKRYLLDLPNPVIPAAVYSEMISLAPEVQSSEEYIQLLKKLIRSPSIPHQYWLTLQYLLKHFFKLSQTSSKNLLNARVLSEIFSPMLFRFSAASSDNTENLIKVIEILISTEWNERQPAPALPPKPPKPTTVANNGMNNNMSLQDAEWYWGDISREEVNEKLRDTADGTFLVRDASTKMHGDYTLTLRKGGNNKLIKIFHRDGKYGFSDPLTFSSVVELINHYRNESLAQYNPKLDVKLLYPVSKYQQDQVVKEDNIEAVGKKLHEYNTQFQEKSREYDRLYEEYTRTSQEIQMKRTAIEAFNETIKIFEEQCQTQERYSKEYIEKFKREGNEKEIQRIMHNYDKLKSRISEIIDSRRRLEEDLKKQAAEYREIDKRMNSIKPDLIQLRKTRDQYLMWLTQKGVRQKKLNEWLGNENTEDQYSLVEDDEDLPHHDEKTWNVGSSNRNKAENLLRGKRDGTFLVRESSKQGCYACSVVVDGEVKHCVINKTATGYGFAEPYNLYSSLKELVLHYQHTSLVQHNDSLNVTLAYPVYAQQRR

For orientation: IC50 means the concentration that gives 50% inhibition. For `COc1ccc2c(c1)c(C=C1Oc3c(ccc(O)c3O)C1=O)c(C)n2CCCCN1CCOCC1` [Example 145, 6,7-dihydroxy-2-{[5-methoxy-2-methyl-1-(4-morpholin-4-ylbutyl)-1H-indol-3-yl]methylene}-1-benzofuran-3(2H)-one], the IC50 (read-out: PI3Kα Avg. IC50) was 0.825 µM.
Still for that read-out and setting: for `Cc1ccc2c(c1)C(=O)/C(=C/c1c[nH]c3ccc(OCc4ccccc4)cc13)S2` [Example 295, (2Z)-2-{[5-(benzyloxy)-1H-indol-3-yl]methylene}-5-methyl-1-benzothiophen-3(2H)-one] the value was more than 10 µM.
With `Cn1c(-c2ccccc2)c(/C=C2\Sc3ccccc3C2=O)c2ccccc21` [Example 275, (2Z)-2-[(1-methyl-2-phenyl-1H-indol-3-yl)methylene]-1-benzothiophen-3(2H)-one], the IC50 (read-out: PI3Kα Avg. IC50) was 2.8 µM.
On the same count and under the same terms, in the case of `Cc1ccc2c(c1)C(=O)C(=Cc1c(-c3ccc4ccccc4c3)[nH]c3ccccc13)S2` [Example 296, 5-methyl-2-{[2-(2-naphthyl)-1H-indol-3-yl]methylene}-1-benzothiophen-3(2H)-one] it was 12 µM; in that of `O=C1/C(=C/c2c(-c3ccc(F)cc3)[nH]c3ccccc23)Sc2ccc(Cl)cc21` [Example 286, (2Z)-5-chloro-2-{[2-(4-fluorophenyl)-1H-indol-3-yl]methylene}-1-benzothiophen-3(2H)-one], more than 10 µM.
For the setting “PI3Kα Avg. IC50”, `CNC(=O)Oc1ccc2c(c1)C(=O)/C(=C/c1cn(CCN3CCN(C)CC3)c3ccc(OC)cc13)O2` [Compound 546, (2Z)-2-({5-methoxy-1-[2-(4-methylpiperazin-1-yl)ethyl]-1H-indol-3-yl}methylene)-3-oxo-2,3-dihydro-1-benzofuran-5-yl methylcarbamate] displayed an IC50 of 0.63 µM.
Consider `CN(c1ccccc1)c1cccc2c1c(/C=C1\Oc3cc(O)cc(O)c3C1=O)cn2C` [Compound 542, (2Z)-4,6-dihydroxy-2-({1-methyl-4-[methyl(phenyl)amino]-1H-indol-3-yl}methylene)-1-benzofuran-3(2H)-one], for which, where the note is “read-out: PI3Kα Avg. IC50”, the IC50 stood at 0.359 µM.
Turning to `COc1ccc2[nH]c(-c3ccccc3)c(C=C3Oc4cccc(O)c4C3=O)c2c1` [Example 79, 4-hydroxy-2-[(5-methoxy-2-phenyl-1H-indol-3-yl)methylene]-1-benzofuran-3(2H)-one], the IC50 (read-out: PI3Kα Avg. IC50) is 1.65 µM.
Same read-out and setting: in the case of `Cn1c(-c2ccccc2)c(C=C2Oc3cc(O)ccc3C2=O)c2ccccc21` [Example 7, 6-hydroxy-2-[(1-methyl-2-phenyl-1H-indol-3-yl)methylene]-1-benzofuran-3(2H)-one] it was more than 10 µM; in that of `Cc1cccc2c(/C=C3\Sc4ccccc4C3=O)c[nH]c12` [Example 280, (2Z)-2-[(7-methyl-1H-indol-3-yl)methylene]-1-benzothiophen-3(2H)-one], 4.56 µM.
The same measure, in the same setting: in the case of `Cc1cccc2c1c(/C=C1\Oc3cc(O)cc(O)c3C1=O)c(-c1ccccn1)n2C` [Compound 477, (2Z)-2-[(1,4-dimethyl-2-pyridin-2-yl-1H-indol-3-yl)methylene]-4,6-dihydroxy-1-benzofuran-3(2H)-one] it was 1.12 µM; in that of `COc1ccc2c(c1)c(C=C1Oc3c(ccc(O)c3O)C1=O)cn2C` [Example 85, 6,7-dihydroxy-2-[(5-methoxy-1-methyl-1H-indol-3-yl)methylene]-1-benzofuran-3(2H)-one], 1.15 µM.
The same measure, in the same setting: in the case of `COc1cccc2c1O/C(=C\c1c[nH]c3ccc(OCc4ccccc4)cc13)C2=O` [Example 43, (2Z)-2-{[5-(benzyloxy)-1H-indol-3-yl]methylene}-7-methoxy-1-benzofuran-3(2H)-one] it was more than 10 µM.
For `O=C1/C(=C/c2c[nH]c3ccc(Br)cc23)Oc2ccccc21` [Example 24, (2Z)-2-[(5-bromo-1H-indol-3-yl)methylene]-1-benzofuran-3(2H)-one], the IC50 (read-out: PI3Kα Avg. IC50) was more than 10 µM.
For the compound `O=C1/C(=C/c2c(-c3ccc(Cl)cc3)[nH]c3ccccc23)Sc2ccc(Cl)cc21` [Example 284, (2Z)-5-chloro-2-{[2-(4-chlorophenyl)-1H-indol-3-yl]methylene}-1-benzothiophen-3(2H)-one], the IC50 (read-out: PI3Kα Avg. IC50) was more than 10 µM.
Still for that read-out and setting: in the case of `O=C1/C(=C/c2c[nH]c3ccc(F)cc23)Oc2c1ccc(O)c2O` [Example 64, (2Z)-2-[(5-fluoro-1H-indol-3-yl)methylene]-6,7-dihydroxy-1-benzofuran-3(2H)-one] it was 1.72 µM; in that of `COc1cccc2c1O/C(=C\c1c(-c3ccc(F)cc3)[nH]c3ccccc13)C2=O` [Example 37, (2Z)-2-{[2-(4-fluorophenyl)-1H-indol-3-yl]methylene}-7-methoxy-1-benzofuran-3(2H)-one], 2.35 µM.
Take `O=C1/C(=C/c2c(-c3ccc4ccccc4c3)[nH]c3ccccc23)Oc2ccccc21` [Example 18, (2Z)-2-{[2-(2-naphthyl)-1H-indol-3-yl]methylene}-1-benzofuran-3(2H)-one]: where the note is “read-out: PI3Kα Avg. IC50”, the IC50 was found to be 2.55 µM.
On the same count and under the same terms, in the case of `COc1cccc2c1O/C(=C\c1c(-c3ccc4ccccc4c3)[nH]c3ccccc13)C2=O` [Example 36, (2Z)-7-methoxy-2-{[2-(2-naphthyl)-1H-indol-3-yl]methylene}-1-benzofuran-3(2H)-one] it was more than 10 µM; in that of `Cn1cc(/C=C2\Oc3c(ccc(O)c3O)C2=O)c2ccccc21` [Example 57, (2Z)-6,7-dihydroxy-2-[(1-methyl-1H-indol-3-yl)methylene]-1-benzofuran-3(2H)-one], 4.5 µM.
As for `Cc1ccc2c(c1)C(=O)/C(=C/c1c[nH]c3ccccc13)S2` [Example 289, (2Z)-2-(1H-indol-3-ylmethylene)-5-methyl-1-benzothiophen-3(2H)-one], the IC50 (read-out: PI3Kα Avg. IC50) is 10.7 µM.
Still for that read-out and setting: in the case of `Cc1[nH]c2ccccc2c1/C=C1\Oc2cc(O)ccc2C1=O` [Example 30, (2Z)-6-hydroxy-2-[(2-methyl-1H-indol-3-yl)methylene]-1-benzofuran-3(2H)-one] it was 12.8 µM; in that of `Cn1cc(/C=C2\Sc3ccccc3C2=O)c2ccccc21` [Example 278, (2Z)-2-[(1-methyl-1H-indol-3-yl)methylene]-1-benzothiophen-3(2H)-one], 3.1 µM.
As to `COc1cccc2c1OC(=Cc1c(-c3ccccc3)n(C)c3ccccc13)C2=O` [Example 11, 7-methoxy-2-[(1-methyl-2-phenyl-1H-indol-3-yl)methylene]-1-benzofuran-3(2H)-one], the IC50 (read-out: PI3Kα Avg. IC50) is more than 10 µM.
As to `COc1ccc2c(c1)c(C=C1Oc3c(ccc(O)c3O)C1=O)c(C)n2CCCCN1CCN(C)CC1` [Example 144, 6,7-dihydroxy-2-({5-methoxy-2-methyl-1-[4-(4-methylpiperazin-1-yl)butyl]-1H-indol-3-yl}methylene)-1-benzofuran-3(2H)-one], under “read-out: PI3Kα Avg. IC50”, the IC50 turned out to be 1.6 µM.
On the same count and under the same terms, for `COc1cccc2c1O/C(=C\c1c(C)[nH]c3ccc([N+](=O)[O-])cc13)C2=O` [Example 38, (2Z)-7-methoxy-2-[(2-methyl-5-nitro-1H-indol-3-yl)methylene]-1-benzofuran-3(2H)-one] the value was more than 10 µM; for `COc1cccc2c1OC(=Cc1c(-c3ccccc3)[nH]c3ccccc13)C2=O` [Example 10, 7-methoxy-2-[(2-phenyl-1H-indol-3-yl)methylene]-1-benzofuran-3(2H)-one], more than 10 µM; for `O=C1/C(=C/c2c[nH]c3ccccc23)Sc2ccc(Cl)cc21` [Example 281, (2Z)-5-chloro-2-(1H-indol-3-ylmethylene)-1-benzothiophen-3(2H)-one], more than 10 µM.
Same read-out and setting: for `O=C1/C(=C/c2c(-c3ccc4ccccc4c3)[nH]c3ccccc23)Sc2ccccc21` [Example 276, (2Z)-2-{[2-(2-naphthyl)-1H-indol-3-yl]methylene}-1-benzothiophen-3(2H)-one] the value was more than 10 µM.
Regarding `Cc1cccc2c(/C=C3\Oc4ccccc4C3=O)c[nH]c12` [Example 23, (2Z)-2-[(7-methyl-1H-indol-3-yl)methylene]-1-benzofuran-3(2H)-one], for the setting “read-out: PI3Kα Avg. IC50”, the IC50 is more than 10 µM.
On the same count and under the same terms, in the case of `COc1cccc2c1O/C(=C\c1cn(Cc3ccccc3)c3ccccc13)C2=O` [Example 42, (2Z)-2-[(1-benzyl-1H-indol-3-yl)methylene]-7-methoxy-1-benzofuran-3(2H)-one] it was more than 10 µM.
As to `O=C1/C(=C/c2c(-c3ccccc3)[nH]c3ccccc23)Sc2ccc(Cl)cc21` [Example 283, (2Z)-5-chloro-2-[(2-phenyl-1H-indol-3-yl)methylene]-1-benzothiophen-3(2H)-one], the IC50 (read-out: PI3Kα Avg. IC50) was more than 10 µM.
Regarding `COc1cccc2c1O/C(=C\c1c(-c3ccc(Cl)cc3)[nH]c3ccccc13)C2=O` [Example 35, (2Z)-2-{[2-(4-chlorophenyl)-1H-indol-3-yl]methylene}-7-methoxy-1-benzofuran-3(2H)-one], the IC50 (read-out: PI3Kα Avg. IC50) was determined as 1.94 µM.
On the same count and under the same terms, in the case of `O=C1/C(=C/c2c[nH]c3ccc(Br)cc23)Oc2cc(O)ccc21` [Example 32, (2Z)-2-[(5-bromo-1H-indol-3-yl)methylene]-6-hydroxy-1-benzofuran-3(2H)-one] it was 6.47 µM.
The same measure, in the same setting: for `Cc1[nH]c2ccc([N+](=O)[O-])cc2c1/C=C1\Oc2cc(O)ccc2C1=O` [Example 29, (2Z)-6-hydroxy-2-[(2-methyl-5-nitro-1H-indol-3-yl)methylene]-1-benzofuran-3(2H)-one] the value was more than 10 µM; for `Cc1ccc2c(c1)C(=O)/C(=C/c1c[nH]c3c(C)cccc13)S2` [Example 293, (2Z)-5-methyl-2-[(7-methyl-1H-indol-3-yl)methylene]-1-benzothiophen-3(2H)-one], more than 10 µM; for `COc1ccc2c(c1)c(/C=C1\Oc3ccc(Br)cc3C1=O)cn2CCCN(C)C` [Compound 516, (2Z)-5-bromo-2-({1-[3-(dimethylamino)propyl]-5-methoxy-1H-indol-3-yl}methylene)-1-benzofuran-3(2H)-one], 9.75 µM.
With `COc1cccc2c1O/C(=C\c1c[nH]c3cc(C)ccc13)C2=O` [Example 40, (2Z)-7-methoxy-2-[(6-methyl-1H-indol-3-yl)methylene]-1-benzofuran-3(2H)-one], the IC50 (read-out: PI3Kα Avg. IC50) was more than 10 µM.
Take `COc1cccc2c1OC(=Cc1cn(C)c3ccccc13)C2=O` [Example 12, 7-methoxy-2-[(1-methyl-1H-indol-3-yl)methylene]-1-benzofuran-3(2H)-one]: the IC50 (read-out: PI3Kα Avg. IC50) was more than 10 µM.
Turning to `Cc1ccc2c(/C=C3\Sc4ccccc4C3=O)c[nH]c2c1` [Example 279, (2Z)-2-[(6-methyl-1H-indol-3-yl)methylene]-1-benzothiophen-3(2H)-one], where the note is “read-out: PI3Kα Avg. IC50”, the concentration for half-maximal inhibition (IC50) was more than 10 µM.
